Consider one compound from patent publication US8314150B2, “Kinase protein binding inhibitors” (priority 2008, dated 2012).

For the assay, the system named is Panc-1 and Miapaca-2 pancreatic cancer cells. In words: MTT cell viability assay, pancreatic cancer cells. The class given is cell-based, human. The note with it: 72 hours. The method, then: The 3-(4,5-dimethylthiazol-2-yl)-5-(3-carboxymethoxyphenyl)-2-(4-sulfophenyl)-2H-tetrazolium compound from Promega Viability kit (Madison, Ill.) was added, and the cells were incubated at 37° C. for 1-2 hours. The optical density on 96-plate was analyzed with a microplate reader at 490 nm to determine cell viability. In addition, cells were stained with trypan blue after 24 hours of treatment with Y15 and the percent of cells that stained positive were determined with a hemacytometer. Cell adhesion assay—The poly-L-Lysine or Collagen (5 μg/ml) coated 96-well plates were blocked with the blocking buffer (medium with 0.5% BSA) for 1 hour at 37 C. […] Then 2% SDS was added to the dried plated and OD at 590 nm was measured for detecting cell adhesion. […] Protein concentrations were determined using a Bio-Rad Kit. The boiled samples were loaded on Ready SDS-10% PAGE gels (Bio Rad, Inc) and used for Western blot analysis with the protein-specific antibody. […] Detachment Assay—Cells were plated with and without inhibitors for 24 hours, and detached and attached cells were counted in a hemocytometer. We calculated the percent of detachment by dividing the number of detached cells by the total number of cells. The percent of detached cells was calculated in three independent experiments. […] For each experiment 300 cells per treatment were counted. […]

The structures appear in SMILES notation.

In the case of `Cl.Cl.Cl.Cl.Nc1cc(N)c(N)cc1N` [Y15, 1,2,4,5-benzenetetraamine tetrahydrochloride], the “dose from which cell viability was inhibited” value amounted to 1 µM.
